Results as given in patent US20040248764A1 (priority 2001, published 2004).
Values after ≈ are worked out from the molar mass of the structure shown. Values joined by “and” are separate entries in the source; they are usually repeats but may differ in a detail not shown here. Identical values can stand only once. Like-named read-outs stand apart in the source and are kept apart here.

Key:
healthy vines = conditions: in vivo
[1] = test system: Xylella fastidiosa strains; experiment: microbe, parasite or virus in culture; type: cell-based; conditions: for MIC: Xylella fastidiosa
Xylella = type: cell-based
[2] = test system: X. fastidiosa-infected grapevines; conditions: in vivo
S. melliferum = type: cell-based
E. coli = conditions: cited from earlier work
S. floricola = type: cell-based
grape = conditions: in vivo
Spiroplasma citri = type: cell-based
Mycoplasma iowae = type: cell-based
[3] = test system: X. fastidiosa-infected grapevines; conditions: in vivo; remark: listed apart in the source
Xylella fastidiosa = type: in vivo, grapevines
[4] = test system: Xylella sp. strains Shiraz, Melody, Coyaga; type: cell-based; conditions: 10^8 CFU
[5] = test system: aster yellow phytoplasma (AYP); type: in vivo, Catharanthus roseus
S. apis = type: cell-based

SMILES: CC(C)=CCCC(C)=CC=O [citral, 3,7-dimethyl-2,6-octadien-1-al]
- weekly observations of treated healthy vines (healthy vines): no phytoplasma on any plants
- effect on cells of X. fastidiosa strains ([1]; 250 ppm, 24-hr. treatment): killed cells of all 11 strains
- MIC ([1]; 4 grape strains, 2 sycamore strains, and 1 peach strain): 125 µg/mL (≈ 821 µM)
- MIC ([1]; 24 h, strain 2#6, Plum leaf scald): 62.5 µg/mL (≈ 411 µM)
- MIC ([1]; 24 h, strain 3SV, Pierce's disease of grapevine): 125 µg/mL (≈ 821 µM)
- MIC ([1]; 24 h, strain 4#5, Phony disease of peach): 125 µg/mL (≈ 821 µM)
- MIC ([1]; 24 h, strain 4BD2, Pecan leaf scorch): 62.5 µg/mL (≈ 411 µM)
- MIC ([1]; 24 h, strain #6, Oleander leaf scorch): 62.5 µg/mL (≈ 411 µM)
- MIC ([1]; 24 h, strain Cayuga, Pierce's disease of grapevine): 125 µg/mL (≈ 821 µM)
- MIC ([1]; 24 h, strain Melody, Pierce's disease of grapevine): 125 µg/mL (≈ 821 µM)
- MIC ([1]; 24 h, strain SLS#61, Sycamore leaf scorch): 125 µg/mL (≈ 821 µM)
- MIC ([1]; 24 h, strain SLS-DC, Sycamore leaf scorch): 125 µg/mL (≈ 821 µM)
- MIC ([1]; 24 h, strain Shiraz, Pierce's disease of grapevine): 125 µg/mL (≈ 821 µM)
- MIC ([1]; 24 h, strain Yugo, Pierce's disease of grapevine): 62.5 µg/mL (≈ 411 µM)
- MIC ([1]; strains from grape, plum, pecan, and oleander): 62.5 µg/mL (≈ 411 µM)
- effect on Xylella (Xylella; 62.5 ppm citral): No complete kill but get stasis
- kill of Xylella (Xylella; 125 ppm citral): 100% kill
- kill of Xylella (Xylella; 500 ppm citral): 100% kill
- average fruit yield [2]: about 4.8 lbs of fruit per vine
- average increased yield [2]: about 6.25%
- cells that survived the treatment (S. melliferum): no cells
- citral in growth media that reduced the concentration of E. coli (E. coli): more than 0.01%
- citral in growth media with bactericidal effect (E. coli): 0.08%
- color changing units (S. floricola): 10^9 CCUs and 10^6 CCUs
- concentration at which phytotoxic (grape; grape): approximately 5000 ppm
- phytotoxicity in grape (grape): phytotoxicity
- cells that survived the treatment (Spiroplasma citri): no cells
- color changing units (Mycoplasma iowae): 10^8 CCUs and 10^7 CCUs and 10^6 CCUs and 10^5 CCUs and 10^4 CCUs
- kill of cells by the treatment (Mycoplasma iowae): not enough to kill
- average branch length longer than control vines [3]: ~6 inches
- treated vines positive for bacteria (isolation and ELISA) (Xylella fastidiosa; other vines, treated Day 206 and Day 213, sampled on Day 252): Four out of 15
- treated vines positive for presence of bacteria (isolation and ELISA) (Xylella fastidiosa; treated Day 0 and Day 7, sampled on Day 252): Three out of 15
- Xylella growth (CFU) ([4]; strain Coyaga, 3.25 ppm): TNTC
- Xylella growth (CFU) ([4]; strain Coyaga, 62.5 ppm): TNTC
- Xylella growth (CFU) ([4]; strain Melody, 3.25 ppm): TNTC
- Xylella growth (CFU) ([4]; strain Melody, 62.5 ppm): TNTC
- Xylella growth (CFU) ([4]; strain Shiraz, 3.25 ppm): TNTC
- Xylella growth (CFU) ([4]; strain Shiraz, 62.5 ppm): TNTC**
- AYP symptoms of treated plants ([5]; 500 ppm citral in water, 500 mL per plant Day 8 and Day 14, three plants, as of Day 108): remained symptomless
- AYP symptoms of treated periwinkles ([5]; 500 ppm, 500 mL per plant Day 8 and Day 15, three plants, as of Day 174): remained symptomless
- delay of symptom development ([5]; in vivo): 22 days
- color changing units (S. apis): 10^9 CCUs and 10^7 CCUs and 10^3 CCUs
